US20250242040A1, “ALBUMIN CONJUGATE, PREPARATION METHOD THEREFOR AND USE THEREOF” (Suzhou KangDeRui Pharmaceutical, Ltd., priority 2023, published 2025)
Non-standard residues stand in square brackets, D forms with d. Residues, ends and D or L forms follow the SMILES beside them. Dolaproine = CO[C@@H]([C@@H]1CCCN1)[C@@H](C)C(=O)O; Dil = CC[C@H](C)[C@H](NC)[C@@H](CC(=O)O)OC; NMeV = CN[C@H](C(=O)O)C(C)C

Tested on: A-549 cells
Assay: Apoptosis assay of A-549 cells by flow cytometry (in vitro cytotoxic activity)
Type: cell-based
Method: The apoptosis of A-549 cells was analyzed by flow cytometry (FIG. 2).

CC[C@H](C)[C@@H]([C@@H](CC(=O)N1CCC[C@H]1[C@H](OC)[C@@H](C)C(=O)N[C@@H](Cc1ccccc1)C(=O)O)OC)N(C)C(=O)[C@@H](NC(=O)[C@@H](NC)C(C)C)C(C)C [MMAF, monomethyl auristatin F] (H-[NMeV]V[Dil][Dolaproine]F-OH)
apoptosis efficiency: 12.3%
